By EC50 is commonly meant the midpoint of the concentration-response curve.

SMILES strings stand for the structures.

This test has as its target β3-adrenoceptor (β3-AR) (Mus musculus, UniProt P25962). As to the kind of experiment: Epac1-camps FRET cAMP concentration-response in mature murine brown adipocytes. In kind it is cell-based.

Chain of β3-adrenoceptor (β3-AR) (P25962 whole entry): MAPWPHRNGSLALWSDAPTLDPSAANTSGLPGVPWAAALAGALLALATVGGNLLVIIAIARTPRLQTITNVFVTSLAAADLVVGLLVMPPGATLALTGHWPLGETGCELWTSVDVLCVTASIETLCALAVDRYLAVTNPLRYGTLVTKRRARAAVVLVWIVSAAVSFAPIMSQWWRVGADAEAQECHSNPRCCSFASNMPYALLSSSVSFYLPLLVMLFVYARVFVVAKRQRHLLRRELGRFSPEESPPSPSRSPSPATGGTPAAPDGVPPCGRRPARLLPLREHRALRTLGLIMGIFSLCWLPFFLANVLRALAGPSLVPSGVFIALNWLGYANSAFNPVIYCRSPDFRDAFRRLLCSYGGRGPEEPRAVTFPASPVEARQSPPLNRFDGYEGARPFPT

For the molecule `C[C@H](Cc1ccc2c(c1)OC(C(=O)O)(C(=O)O)O2)NC[C@H](O)c1cccc(Cl)c1` [CL, CL 316,243], the EC50 turned out to be 7.8 µM.

(Values after paper PMC7191645 (Molecular Metabolism, 2020).)
